This is an account of results in ChEMBL document CHEMBL4765450, “The components and activities analysis of a novel anticoagulant candidate dHG-5” (Eur J Med Chem, 2020).

Assay [1] has as its target Coagulation factor XI (Homo sapiens) (UniProt P03951). The experiment in a line: Inhibition of factor 11a (unknown origin) at IC50 using S-2366 as substrate preincubated for 1 min followed by chromogenic substrate addition and measured for 2 mins. As to conditions: time 3.0 min.
For assay [2], the system named is Rattus norvegicus. The experiment in a line: Antithrombotic activity in thromboplastin and stasis-induced Sprague-Dawley rat deep venous thrombosis model assessed as reduction in venous thrombosis by measuring activity potency of oligosaccharides multiplied by the percentage of oligosaccharides in dHG-5 at 1.84 mg/kg, sc administered 1 hr prior to thromboplastin addition for 20 secs followed by establishment of stasis for 20 mins relative to dHG-5. Format: functional. The note with it: time 80.33 min, 1.339 h.

Assay [3] deals with Plasma. The experiment in a line: Anticoagulation activity in human plasma assessed as drug level causing 20 times doubling of APTT by measuring activity potency of oligosaccharides multiplied by the percentage of oligosaccharides in dHG-5 preincubated for 2 mins followed by APTT reagent and measured after 3 mins by coagulometric method relative to dHG-5. Format: functional. The note with it: time 5 min.

Assay [4] addresses Coagulation factor XI (Homo sapiens) (UniProt P03951). The assay is described as follows: Inhibition of factor 11a (unknown origin) at IC90 using S-2366 as substrate preincubated for 1 min followed by chromogenic substrate addition and measured for 2 mins in presence of AT-III. The note with it: time 3.0 min.
In assay [5] the target is T1, Coagulation factor IX (Homo sapiens, UniProt P00740). The assay is described as follows: Inhibition of factor 9a (unknown origin) binding to immobilized biotinylated oHG-11 assessed as activity potency of oligosaccharides multiplied by the percentage of oligosaccharides in dHG-5 by biolayer interferometry relative to dHG-5. For orientation: BLI is a label-free optical method that tracks binding on a fibre tip over time.
T1 sequence (P00740 47-191 limits assumed): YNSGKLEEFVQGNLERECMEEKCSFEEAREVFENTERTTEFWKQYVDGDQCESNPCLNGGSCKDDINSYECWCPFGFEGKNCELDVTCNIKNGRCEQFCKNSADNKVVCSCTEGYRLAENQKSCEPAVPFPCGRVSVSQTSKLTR
T1 sequence (P00740 227-461 limits assumed): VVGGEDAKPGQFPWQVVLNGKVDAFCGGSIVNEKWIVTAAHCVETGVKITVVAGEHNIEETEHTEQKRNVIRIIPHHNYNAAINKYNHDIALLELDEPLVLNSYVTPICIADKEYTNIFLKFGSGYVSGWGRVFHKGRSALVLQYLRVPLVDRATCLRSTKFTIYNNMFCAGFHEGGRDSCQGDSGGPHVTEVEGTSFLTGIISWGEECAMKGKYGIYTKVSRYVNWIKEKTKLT

The test system of assay [6] is Rattus norvegicus. The experiment in a line: Antithrombotic activity in thromboplastin and stasis-induced Sprague-Dawley rat deep venous thrombosis model assessed as reduction in venous thrombosis at 1.84 mg/kg, sc administered 1 hr prior to thromboplastin addition for 20 secs followed by establishment of stasis for 20 mins relative to dHG-5. Format: functional. The note with it: time 80.33 min, 1.339 h.

The target in assay [7] is T2, Coagulation factor VII (Homo sapiens) (UniProt P08709).
T2 sequence (whole entry): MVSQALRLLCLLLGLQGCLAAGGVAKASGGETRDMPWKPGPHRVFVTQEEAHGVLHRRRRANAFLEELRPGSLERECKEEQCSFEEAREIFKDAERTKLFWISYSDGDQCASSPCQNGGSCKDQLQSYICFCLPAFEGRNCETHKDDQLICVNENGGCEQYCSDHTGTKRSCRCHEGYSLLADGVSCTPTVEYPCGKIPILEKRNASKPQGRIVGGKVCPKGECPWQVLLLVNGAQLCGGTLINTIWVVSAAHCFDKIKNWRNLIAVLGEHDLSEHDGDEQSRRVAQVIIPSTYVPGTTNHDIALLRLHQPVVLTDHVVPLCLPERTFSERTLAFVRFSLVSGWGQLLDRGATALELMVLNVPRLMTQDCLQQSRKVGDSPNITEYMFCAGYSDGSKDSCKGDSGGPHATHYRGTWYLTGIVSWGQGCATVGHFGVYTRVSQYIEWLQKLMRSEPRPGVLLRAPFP
The assay is described as follows: Inhibition of factor 7a (unknown origin) at IC50 using pefachrome factor VIIa as substrate preincubated for 1 min followed by chromogenic substrate addition and measured for 2 mins. As to conditions: time 3.0 min.

Assay [8] deals with Coagulation factor X (Homo sapiens) (UniProt P00742). The experiment in a line: Inhibition of factor 10a (unknown origin) at IC50 preincubated for 1 min followed by chromogenic substrate addition and measured for 2 mins. As to conditions: time 3.0 min.
Chain of Coagulation factor X (Homo sapiens) (P00742 41-179 limits assumed): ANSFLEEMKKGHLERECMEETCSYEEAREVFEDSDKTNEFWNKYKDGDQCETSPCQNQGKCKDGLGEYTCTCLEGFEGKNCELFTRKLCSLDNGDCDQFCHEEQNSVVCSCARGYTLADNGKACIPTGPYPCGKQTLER
Chain of Coagulation factor X (Homo sapiens) (P00742 235-488 limits assumed): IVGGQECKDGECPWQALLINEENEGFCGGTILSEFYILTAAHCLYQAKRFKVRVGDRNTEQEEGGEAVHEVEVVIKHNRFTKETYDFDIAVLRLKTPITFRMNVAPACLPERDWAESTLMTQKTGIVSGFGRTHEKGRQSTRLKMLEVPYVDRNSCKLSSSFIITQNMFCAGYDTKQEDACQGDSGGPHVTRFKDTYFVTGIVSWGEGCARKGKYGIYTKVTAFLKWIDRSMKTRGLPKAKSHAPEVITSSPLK
For assay [9], the target named is Coagulation factor XI (Homo sapiens) (UniProt P03951). The experiment in a line: Inhibition of factor 11a (unknown origin) at IC50 using S-2366 as substrate preincubated for 1 min followed by chromogenic substrate addition and measured for 2 mins in presence of AT-III. The note with it: time 3.0 min.
Chain of Coagulation factor XI (Homo sapiens) (P03951 19-387 limits assumed): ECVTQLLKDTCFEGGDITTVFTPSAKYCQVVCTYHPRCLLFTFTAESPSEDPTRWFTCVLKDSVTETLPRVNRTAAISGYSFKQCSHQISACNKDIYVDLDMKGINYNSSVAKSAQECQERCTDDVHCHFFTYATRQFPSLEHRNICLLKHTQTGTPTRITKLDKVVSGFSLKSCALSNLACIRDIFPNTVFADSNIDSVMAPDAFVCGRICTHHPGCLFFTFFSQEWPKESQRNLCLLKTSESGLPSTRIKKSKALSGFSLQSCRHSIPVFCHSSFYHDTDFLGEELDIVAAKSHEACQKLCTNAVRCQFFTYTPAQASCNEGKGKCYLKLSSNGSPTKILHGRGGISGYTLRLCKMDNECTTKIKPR
Chain of Coagulation factor XI (Homo sapiens) (P03951 388-625 limits assumed): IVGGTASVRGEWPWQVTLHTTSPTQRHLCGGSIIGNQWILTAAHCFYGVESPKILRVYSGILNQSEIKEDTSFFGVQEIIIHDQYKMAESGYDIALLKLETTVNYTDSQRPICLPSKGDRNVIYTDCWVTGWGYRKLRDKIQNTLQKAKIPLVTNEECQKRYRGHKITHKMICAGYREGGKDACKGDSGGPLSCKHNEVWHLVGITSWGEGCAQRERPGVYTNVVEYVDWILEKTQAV
The target of assay [10] is Prothrombin (Homo sapiens) (UniProt P00734). The experiment in a line: Inhibition of factor 2a (unknown origin) at IC90 preincubated for 1 min followed by chromogenic substrate addition and measured for 2 mins in presence of AT-III. As to conditions: time 3.0 min.
Assay [11] has as its target Coagulation factor X (Homo sapiens) (UniProt P00742). The assay is described as follows: Inhibition of factor 10a (unknown origin) at IC90 preincubated for 1 min followed by chromogenic substrate addition and measured for 2 mins in presence of AT-III relative to control. The note with it: time 3.0 min.
Assay [12] has as its target T1, Coagulation factor IX. The assay is described as follows: Inhibition of factor 9a (unknown origin) binding to immobilized biotinylated oHG-11 by biolayer interferometry relative to dHG-5.
For assay [13], the target named is T3, Coagulation factor XII (Homo sapiens) (UniProt P00748).
T3 sequence (whole entry): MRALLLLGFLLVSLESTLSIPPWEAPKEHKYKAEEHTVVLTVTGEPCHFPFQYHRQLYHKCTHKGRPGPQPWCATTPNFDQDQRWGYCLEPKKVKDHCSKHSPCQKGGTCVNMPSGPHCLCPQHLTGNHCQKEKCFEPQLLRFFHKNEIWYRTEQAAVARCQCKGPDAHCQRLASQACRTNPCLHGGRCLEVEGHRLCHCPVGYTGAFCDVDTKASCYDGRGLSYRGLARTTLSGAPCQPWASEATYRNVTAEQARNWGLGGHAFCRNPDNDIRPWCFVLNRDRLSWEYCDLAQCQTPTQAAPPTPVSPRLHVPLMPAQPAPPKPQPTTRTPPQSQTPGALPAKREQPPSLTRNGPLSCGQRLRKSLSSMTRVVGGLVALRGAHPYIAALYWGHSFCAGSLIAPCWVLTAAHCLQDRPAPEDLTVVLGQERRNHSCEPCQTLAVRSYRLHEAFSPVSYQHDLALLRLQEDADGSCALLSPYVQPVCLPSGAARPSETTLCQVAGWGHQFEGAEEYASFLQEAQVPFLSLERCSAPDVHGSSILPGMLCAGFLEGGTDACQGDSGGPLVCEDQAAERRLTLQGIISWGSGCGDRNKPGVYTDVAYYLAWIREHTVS
The experiment in a line: Inhibition of factor 12a (unknown origin) at IC50 using kallikrein chromogenic substrate preincubated for 1 min followed by chromogenic substrate addition and measured for 2 mins in presence of AT-III. The note with it: time 3.0 min.

In assay [14] the test system is Plasma. The experiment in a line: Anticoagulation activity in human plasma assessed as drug level causing 20 times doubling of APTT preincubated for 2 mins followed by APTT reagent and measured after 3 mins by coagulometric method relative to dHG-5. Format: functional. The note with it: time 5 min.
The target of assay [15] is T3, Coagulation factor XII (Homo sapiens). The assay is described as follows: Inhibition of factor 12a (unknown origin) at IC50 using kallikrein chromogenic substrate preincubated for 1 min followed by chromogenic substrate addition and measured for 2 mins. As to conditions: time 3.0 min.
In assay [16] the target is Prothrombin (Homo sapiens) (UniProt P00734). The assay is described as follows: Inhibition of factor 2a (unknown origin) at IC50 preincubated for 1 min followed by chromogenic substrate addition and measured for 2 mins in presence of AT-III. The note with it: time 3.0 min.
The target of assay [17] is T4, Coagulation factor IX/VIII (Homo sapiens) (UniProt P00740+P00451). The experiment in a line: Inhibition of human citrated plasma iXase (factor 8a-factor 9a complex) preincubated for 2 mins followed by factor 10 addition and measured after 1 min by FXa chromogenic substrate SXa-11 based assay relative to dHG-5. Format: protein-complex assay. As to conditions: time 3.0 min.

Assay [18] addresses T2, Coagulation factor VII (Homo sapiens). The experiment in a line: Inhibition of factor 7a (unknown origin) at IC50 using pefachrome factor VIIa as substrate preincubated for 1 min followed by chromogenic substrate addition and measured for 2 mins in presence of AT-III. The note with it: time 3.0 min.
Assay [19] addresses T4, Coagulation factor IX/VIII (Homo sapiens). The assay is described as follows: Inhibition of human citrated plasma iXase (factor 8a-factor 9a complex) assessed as activity potency of oligosaccharides multiplied by the percentage of oligosaccharides in dHG-5 preincubated for 2 mins followed by factor 10 addition and measured after 1 min by FXa chromogenic substrate SXa-11 based assay relative to dHG-5. Format: protein-complex assay. As to conditions: time 3.0 min.

Assay [20] concerns the target Prothrombin (Homo sapiens) (UniProt P00734). The assay is described as follows: Inhibition of factor 2a (unknown origin) at IC50 preincubated for 1 min followed by chromogenic substrate addition and measured for 2 mins. The note with it: time 3.0 min.
Assay [21] deals with Coagulation factor X (Homo sapiens) (UniProt P00742). The experiment in a line: Inhibition of factor 10a (unknown origin) at IC50 preincubated for 1 min followed by chromogenic substrate addition and measured for 2 mins in presence of AT-III. As to conditions: time 3.0 min.

Active and inactive are the calls of the source. The rule behind the calls is not given here.

For the compound `CC(=O)N[C@H]1[C@H](O[C@@H]([C@H](O[C@@H]2O[C@@H](C)[C@@H](OS(=O)(=O)[O-])[C@@H](OS(=O)(=O)O)[C@@H]2O)[C@@H](O)CO)[C@H](O)C(=O)[O-])O[C@H](COS(=O)(=O)[O-])[C@H](OS(=O)(=O)[O-])[C@@H]1O[C@@H]1O[C@H](C(=O)[O-])[C@@H](O[C@@H]2O[C@H](COS(=O)(=O)[O-])[C@H](OS(=O)(=O)[O-])[C@H](O[C@@H]3O[C@H](C(=O)[O-])[C@@H](O[C@@H]4O[C@H](COS(=O)(=O)[O-])[C@H](OS(=O)(=O)[O-])[C@H](O[C@@H]5O[C@H](C(=O)[O-])[C@@H](O[C@@H]6O[C@H](COS(=O)(=O)[O-])[C@H](OS(=O)(=O)[O-])[C@H](O[C@@H]7O[C@H](C(=O)[O-])[C@@H](O[C@@H]8O[C@H](COS(=O)(=O)[O-])[C@H](OS(=O)(=O)[O-])[C@H](O[C@@H]9O[C@H](C(=O)[O-])[C@@H](O[C@@H]%10O[C@H](COS(=O)(=O)[O-])[C@H](OS(=O)(=O)[O-])[C@H](O[C@@H]%11OC(C(=O)[O-])=C[C@H](O[C@@H]%12O[C@@H](C)[C@@H](OS(=O)(=O)[O-])[C@@H](OS(=O)(=O)O)[C@@H]%12O)[C@H]%11O)[C@H]%10NC(C)=O)[C@H](O[C@@H]%10O[C@@H](C)[C@@H](OS(=O)(=O)[O-])[C@@H](OS(=O)(=O)O)[C@@H]%10O)[C@H]9O)[C@H]8NC(C)=O)[C@H](O[C@@H]8O[C@@H](C)[C@@H](OS(=O)(=O)[O-])[C@@H](OS(=O)(=O)O)[C@@H]8O)[C@H]7O)[C@H]6NC(C)=O)[C@H](O[C@@H]6O[C@@H](C)[C@@H](OS(=O)(=O)[O-])[C@@H](OS(=O)(=O)O)[C@@H]6O)[C@H]5O)[C@H]4NC(C)=O)[C@H](O[C@@H]4O[C@@H](C)[C@@H](OS(=O)(=O)[O-])[C@@H](OS(=O)(=O)O)[C@@H]4O)[C@H]3O)[C@H]2NC(C)=O)[C@H](O[C@@H]2O[C@@H](C)[C@@H](OS(=O)(=O)[O-])[C@@H](OS(=O)(=O)O)[C@@H]2O)[C@H]1O.[Na+].[Na+].[Na+].[Na+].[Na+].[Na+].[Na+].[Na+].[Na+].[Na+].[Na+].[Na+].[Na+].[Na+].[Na+].[Na+].[Na+].[Na+].[Na+].[Na+].[Na+].[Na+].[Na+].[Na+].[Na+].[Na+]`, the inhibition entry in [1], in assay [8], in [9], in assay [11], in assay [13] and in assay [15] was “inactive” each time. The inhibition entry in [16], in [18], in assay [20] and in [21] was “inactive” throughout. Further, the Ratio stood at 23.93 U in the assay on Rattus norvegicus [2]; 22.82 U in the assay on Plasma [3]; 13.1 U at Coagulation factor IX [5]; 213.7 U with Rattus norvegicus [6]; 116 U on Coagulation factor IX [12]; 203.41 U in the assay on Plasma [14]. The Ratio in [17] was determined as 217 U; in assay [19], 24.4 U. Besides, the inhibition entry in assay [4] and in assay [10] was “Active” throughout. In addition, the “inhibition (active/not active)” value in [7] is “inactive”.
